Measurements taken from patent US20170065564A1, “BIS-CYCLIC GUANIDINE COMPOUND COMPOSITIONS, METHODS OF USE AND TREATMENT THEREOF” (University of South Florida, priority 2014, published 2017).
Converted amounts (≈) assume the structure as drawn.

Experiments:
[1] = test system: E. cloacae; type: cell-based, Enterobacter cloacae; details: 8 passages, concentration doubled each day
Procedure: ESKAPE pathogens were grown overnight in liquid media at 37° C. These cultures were then diluted 1:100 in fresh media, and seeded into a 96-well plate. Lead bis-cyclic guanidines or control agents were added to respective wells at half MIC concentrations. […] These were then grown overnight, and the procedure repeated for a total of eight days.

[2] = test system: Enterobacter cloacae; assay: MIC micro broth dilution assay; type: cell-based; parameters: key to stacked score activity, 100/MIC, E: stacked score = 100/MIC; details: for stacked score activity, 100/MIC, E: E. cloacae
Outline: (§1)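 Multidrug-resistant clinical ESKAPE isolates were grown overnight (Gram-positives in TSB, Gram-negatives in LB), diluted 1:1,000 and exposed to decreasing compound concentrations in DMF (≤2.0% DMF).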

[3] = test system: Klebsiella pneumoniae; assay: MIC micro broth dilution assay; type: cell-based; parameters: key to stacked score activity, 100/MIC, K: stacked score = 100/MIC; details: for stacked score activity, 100/MIC, K: K. pneumoniae
Outline: as §1

[4] = test system: K. pneumoniae; assay: Resistance serial passage assay; type: cell-based, Klebsiella pneumoniae; details: 8 passages, concentration doubled each day
Procedure: (§2) ESKAPE pathogens were grown overnight in liquid media at 37° C. These cultures were then diluted 1:100 in fresh media, and seeded into a 96-well plate. Lead bis-cyclic guanidines or control agents were added to respective wells at half MIC concentrations. Plates were then incubated for 24 hours at 37° C., with bacteria removed from these cultures on the following day, to inoculate fresh media (1:100 dilution) containing compounds at a 2-fold higher concentrations. These were then grown overnight, and the procedure repeated for a total of eight days. […] Each experiment was performed in triplicate, yielding identical results.

[5] = test system: Acinetobacter baumannii biofilm; assay: Minimum biofilm eradication concentration (MBEC) assay; type: cell-based; details: 24 h biofilm, purified compound
Procedure: (§3) The minimum biofilm eradication concentration (MBEC) was determined in 96-well microtiter plates as follows. Broth cultures of ESKAPE strains were grown using the conditions described above. Biofilms for each of the ESKAPE pathogens were generated from these as we have previously described for S. aureus, however human serum was not used for non-staphylococcal organisms.^44 46 For all organisms, biofilms were developed by standardizing an overnight culture into fresh media to an OD600 of 0.5 and adding 150 μl into each well of a 96-well microtiter plate. […] These cultures were incubated at 37° C. overnight alongside no drug controls. After 24 hours, the media was removed from wells and the biofilm resuspended in phosphate buffered saline (PBS). Cultures were mixed by vigorous pipetting, before being serially diluted in PBS, and plated in duplicate on relevant agar. Plates were incubated at 37° C. for 24 hours, and CFUs determined by enumeration. Each analysis was performed using three technical replicates, and antibiofilm activity was determined by comparing treated to untreated samples.

[6] = test system: Klebsiella pneumoniae biofilm; assay: as above; type: cell-based; details: 24 h biofilm, purified compound
Procedure: as §3

[7] = test system: Enterobacter cloacae biofilm; assay: as above; type: cell-based; details: 24 h biofilm, purified compound
Procedure: as §3

[8] = test system: Staphylococcus aureus biofilm; assay: as above; type: cell-based; details: 24 h biofilm, purified compound
Procedure: as §3

[9] = test system: Staphylococcus aureus; assay: MIC micro broth dilution assay; type: cell-based; parameters: key to stacked score activity, 100/MIC, S: stacked score = 100/MIC; details: for stacked score activity, 100/MIC, S: S. aureus
Outline: as §1

[10] = test system: A. baumannii; assay: Resistance serial passage assay; type: cell-based, Acinetobacter baumannii; details: 8 passages, concentration doubled each day
Procedure: as §2

[11] = test system: Enterococcus faecium biofilm; assay: Minimum biofilm eradication concentration (MBEC) assay; type: cell-based; details: 24 h biofilm, purified compound
Procedure: as §3

[12] = panel of E. cloacae clinical isolates
[13] = panel of K. pneumoniae clinical isolates

CCCCCCCN1C(=N)N(CCCC[C@H]2CNC(=N)N2CCCCC2CCCCC2)C[C@@H]1CC1CCCCC1 [Compound 16]
increase in MIC after serial passage [1]: 8 fold
stacked score activity, 100/MIC, E [2]: 20
MIC ([2]; Enterobacter cloacae, E. cloacae isolate 1404): 2 µM (≈ 1.11 µg/mL)
MIC ([2]; Enterobacter cloacae, E. cloacae isolate 1405): 2 µM (≈ 1.11 µg/mL)
MIC ([2]; Enterobacter cloacae, E. cloacae isolate 1430): 2 µM (≈ 1.11 µg/mL)
MIC ([2]; Enterobacter cloacae, E. cloacae isolate 1431): 2 µM (≈ 1.11 µg/mL)
MIC ([2]; Enterobacter cloacae, E. cloacae isolate 1445): 2 µM (≈ 1.11 µg/mL)
MIC ([2]; Enterobacter cloacae, E. cloacae isolate 1446): 5 µM (≈ 2.78 µg/mL)
MIC ([2]; Enterobacter cloacae, E. cloacae isolate 1447): 2 µM (≈ 1.11 µg/mL)
MIC ([2]; Enterobacter cloacae, E. cloacae isolate 1448): 2 µM (≈ 1.11 µg/mL)
MIC ([2]; Enterobacter cloacae, E. cloacae isolate 1454): 2 µM (≈ 1.11 µg/mL)
MIC ([2]; Enterobacter cloacae, E. cloacae isolate 1455): 2 µM (≈ 1.11 µg/mL)
MIC ([2]; Enterobacter cloacae, purified compound, Table 1): 1.62 µM (≈ 0.902 µg/mL)
concentration inhibiting 90% of isolates [2, 12]: 2 µM
stacked score activity, 100/MIC, K [3]: 20
MIC ([3]; Klebsiella pneumoniae, K. pneumoniae isolate 1408): 2 µM (≈ 1.11 µg/mL)
MIC ([3]; Klebsiella pneumoniae, K. pneumoniae isolate 1409): 3 µM (≈ 1.67 µg/mL)
MIC ([3]; Klebsiella pneumoniae, K. pneumoniae isolate 1410): 3 µM (≈ 1.67 µg/mL)
MIC ([3]; Klebsiella pneumoniae, K. pneumoniae isolate 1411): 2 µM (≈ 1.11 µg/mL)
MIC ([3]; Klebsiella pneumoniae, K. pneumoniae isolate 1412): 3 µM (≈ 1.67 µg/mL)
MIC ([3]; Klebsiella pneumoniae, K. pneumoniae isolate 1413): 3 µM (≈ 1.67 µg/mL)
MIC ([3]; Klebsiella pneumoniae, K. pneumoniae isolate 1433): 2 µM (≈ 1.11 µg/mL)
MIC ([3]; Klebsiella pneumoniae, K. pneumoniae isolate 1434): 5 µM (≈ 2.78 µg/mL)
MIC ([3]; Klebsiella pneumoniae, K. pneumoniae isolate 1440): 3 µM (≈ 1.67 µg/mL)
MIC ([3]; Klebsiella pneumoniae, K. pneumoniae isolate 1441): 2 µM (≈ 1.11 µg/mL)
MIC ([3]; Klebsiella pneumoniae, purified compound, Table 1): 1.62 µM (≈ 0.902 µg/mL)
concentration inhibiting 90% of isolates [3, 13]: 5 µM
increase in MIC after serial passage [4]: 8 fold
MBEC50 [5]: 14.13 µM
MBEC50 [6]: 6.28 µM
MBEC50 [7]: 12.68 µM
MBEC50 [8]: 7.58 µM
stacked score activity, 100/MIC, S [9]: 20
MIC ([9]; Staphylococcus aureus, S. aureus isolate 542): 2 µM (≈ 1.11 µg/mL)
MIC ([9]; Staphylococcus aureus, S. aureus isolate 626): 2 µM (≈ 1.11 µg/mL)
MIC ([9]; Staphylococcus aureus, S. aureus isolate 635): 2 µM (≈ 1.11 µg/mL)
MIC ([9]; Staphylococcus aureus, S. aureus isolate 648): 2 µM (≈ 1.11 µg/mL)
MIC ([9]; Staphylococcus aureus, S. aureus isolate 690): 2 µM (≈ 1.11 µg/mL)
MIC ([9]; Staphylococcus aureus, S. aureus isolate 693): 2 µM (≈ 1.11 µg/mL)
MIC ([9]; Staphylococcus aureus, S. aureus isolate 715): 2 µM (≈ 1.11 µg/mL)
MIC ([9]; Staphylococcus aureus, S. aureus isolate 728): 2 µM (≈ 1.11 µg/mL)
MIC ([9]; Staphylococcus aureus, S. aureus isolate 834): 2 µM (≈ 1.11 µg/mL)
MIC ([9]; Staphylococcus aureus, S. aureus isolate 1043): 2 µM (≈ 1.11 µg/mL)
MIC ([9]; Staphylococcus aureus, S. aureus isolate 1049): 2 µM (≈ 1.11 µg/mL)
MIC ([9]; Staphylococcus aureus, purified compound, Table 1): 1.62 µM (≈ 0.902 µg/mL)
increase in MIC after serial passage [10]: 8 fold

CCCCCCCN1C(=N)N(CCCC[C@H]2CNC(=N)N2CCC23CC4CC(CC(C4)C2)C3)C[C@@H]1CCCC [Compound 19]
increase in MIC after serial passage [1]: 8 fold
stacked score activity, 100/MIC, E [2]: 20
MIC ([2]; E. cloacae isolate 1404): 2.0 µM (≈ 1.08 µg/mL)
MIC ([2]; E. cloacae isolate 1405): 2.0 µM (≈ 1.08 µg/mL)
MIC ([2]; E. cloacae isolate 1430): 3.0 µM (≈ 1.62 µg/mL)
MIC ([2]; E. cloacae isolate 1431): 2.0 µM (≈ 1.08 µg/mL)
MIC ([2]; E. cloacae isolate 1445): 3.0 µM (≈ 1.62 µg/mL)
MIC ([2]; E. cloacae isolate 1446): 5.0 µM (≈ 2.7 µg/mL)
MIC ([2]; E. cloacae isolate 1447): 2.0 µM (≈ 1.08 µg/mL)
MIC ([2]; E. cloacae isolate 1448): 2.0 µM (≈ 1.08 µg/mL)
MIC ([2]; E. cloacae isolate 1454): 2.0 µM (≈ 1.08 µg/mL)
MIC ([2]; E. cloacae isolate 1455): 2.0 µM (≈ 1.08 µg/mL)
concentration inhibiting 70% of strains [2, 12]: 2 µM
concentration inhibiting 90% of isolates [2, 12]: 5 µM
MIC ([2]; purified compound, Table 1): 1.66 µM (≈ 0.898 µg/mL)
stacked score activity, 100/MIC, K [3]: 20
MIC ([3]; K. pneumoniae isolate 1408): 2.0 µM (≈ 1.08 µg/mL)
MIC ([3]; K. pneumoniae isolate 1409): 3.0 µM (≈ 1.62 µg/mL)
MIC ([3]; K. pneumoniae isolate 1410): 3.0 µM (≈ 1.62 µg/mL)
MIC ([3]; K. pneumoniae isolate 1411): 2.0 µM (≈ 1.08 µg/mL)
MIC ([3]; K. pneumoniae isolate 1412): 3.0 µM (≈ 1.62 µg/mL)
MIC ([3]; K. pneumoniae isolate 1413): 3.0 µM (≈ 1.62 µg/mL)
MIC ([3]; K. pneumoniae isolate 1433): 2.0 µM (≈ 1.08 µg/mL)
MIC ([3]; K. pneumoniae isolate 1434): 5.0 µM (≈ 2.7 µg/mL)
MIC ([3]; K. pneumoniae isolate 1440): 3.0 µM (≈ 1.62 µg/mL)
MIC ([3]; K. pneumoniae isolate 1441): 2.0 µM (≈ 1.08 µg/mL)
concentration inhibiting 70% of strains [3, 13]: 2 µM
concentration inhibiting 90% of isolates [3, 13]: 5 µM
MIC ([3]; purified compound, Table 1): 1.66 µM (≈ 0.898 µg/mL)
increase in MIC after serial passage [4]: 8 fold
MBEC50 [5]: 24.07 µM
MBEC50 [7]: 15.14 µM
MBEC50 [11]: 13.27 µM
stacked score activity, 100/MIC, S [9]: 33
MIC ([9]; S. aureus isolate 542): 2.0 µM (≈ 1.08 µg/mL)
MIC ([9]; S. aureus isolate 626): 2.0 µM (≈ 1.08 µg/mL)
MIC ([9]; S. aureus isolate 635): 2.0 µM (≈ 1.08 µg/mL)
MIC ([9]; S. aureus isolate 648): 2.0 µM (≈ 1.08 µg/mL)
MIC ([9]; S. aureus isolate 690): 2.0 µM (≈ 1.08 µg/mL)
MIC ([9]; S. aureus isolate 693): 2.0 µM (≈ 1.08 µg/mL)
MIC ([9]; S. aureus isolate 715): 2.0 µM (≈ 1.08 µg/mL)
MIC ([9]; S. aureus isolate 728): 2.0 µM (≈ 1.08 µg/mL)
MIC ([9]; S. aureus isolate 834): 2.0 µM (≈ 1.08 µg/mL)
MIC ([9]; S. aureus isolate 1043): 2.0 µM (≈ 1.08 µg/mL)
MIC ([9]; S. aureus isolate 1049): 2.0 µM (≈ 1.08 µg/mL)
MIC ([9]; purified compound, Table 1): 1.66 µM (≈ 0.898 µg/mL)
increase in MIC after serial passage [10]: 8 fold
